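Test compounds were applied to cells in 96-well plates for 48 hours at 5 doses. GI50 = concentration required for 50% inhibition of growth.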 Calls of active or inactive are those of the source. Rule as the data show it: active = GI50 up to about 1.1 µM and inactive = higher.
Experiments:
Assay in all cases: inhibition of tumour cell growth, NCI panel, 48 h
A498 = tested on: A498
CAKI-1 = tested on: CAKI-1
CCRF-CEM = tested on: CCRF-CEM
HCT-116 = tested on: HCT-116
HCT-15 = tested on: HCT-15
HT-29 = tested on: HT-29
K562 = tested on: K562
KM12 = tested on: KM12
M14 = tested on: M14
MCF7 = tested on: MCF7
MDA-N = tested on: MDA-N
MOLT-4 = tested on: MOLT-4
NCI-H522 = tested on: NCI-H522
OVCAR-8 = tested on: OVCAR-8
RPMI-8226 = tested on: RPMI-8226
RXF 393 = tested on: RXF 393
SF-295 = tested on: SF-295
SK-MEL-28 = tested on: SK-MEL-28
SN12C = tested on: SN12C
UACC-62 = tested on: UACC-62

O=C(CC(=O)c1ccncc1)c1ccccc1
GI50 (A498): > 100 µM (inactive)
GI50 (CAKI-1): > 100 µM (inactive)
GI50 (CCRF-CEM): 11.9 µM (inactive)
GI50 (HCT-116): 75.2 µM (inactive)
GI50 (HCT-15): 35.9 µM
GI50 (HT-29): > 77.8 µM (inactive)
GI50 (K562): 45.1 µM (inactive)
GI50 (KM12): > 100 µM (inactive)
GI50 (M14): 78 µM (inactive)
GI50 (MCF7): > 77.6 µM (inactive)
GI50 (MDA-N): > 71.1 µM (inactive)
GI50 (MOLT-4): 38.1 µM (inactive)
GI50 (NCI-H522): 67.3 µM (inactive)
GI50 (OVCAR-8): 59.6 µM (inactive)
GI50 (RPMI-8226): 52.5 µM (inactive)
GI50 (RXF 393): 81.3 µM (inactive)
GI50 (SF-295): > 83.8 µM (inactive)
GI50 (SK-MEL-28): > 100 µM (inactive)
GI50 (SN12C): 42.2 µM (inactive)
GI50 (UACC-62): 88.7 µM (inactive)

COc1cc2c(cc1OC)C13CCN4C=C5CCOC6CC(=O)N2C1C6C5CC43 (stereo not given)
GI50 (A498): > 100 µM (inactive)
GI50 (CAKI-1): > 100 µM (inactive)
GI50 (CCRF-CEM): > 100 µM (inactive)
GI50 (HCT-116): > 100 µM (inactive)
GI50 (HCT-15): > 100 µM
GI50 (HT-29): > 100 µM (inactive)
GI50 (K562): > 100 µM (inactive)
GI50 (KM12): > 100 µM (inactive)
GI50 (M14): > 100 µM (inactive)
GI50 (MCF7): > 100 µM (inactive)
GI50 (MDA-N): > 100 µM (inactive)
GI50 (MOLT-4): > 100 µM (inactive)
GI50 (NCI-H522): > 100 µM (inactive)
GI50 (OVCAR-8): > 100 µM (inactive)
GI50 (RPMI-8226): > 100 µM (inactive)
GI50 (RXF 393): > 100 µM (inactive)
GI50 (SF-295): > 100 µM (inactive)
GI50 (SK-MEL-28): > 100 µM (inactive)
GI50 (SN12C): > 100 µM (inactive)
GI50 (UACC-62): > 100 µM (inactive)

COc1ccc2c(c1)CCc1cc(C(N)=O)c3nnnn3c1-2
GI50 (A498): 18.2 µM (inactive)
GI50 (CAKI-1): 36.7 µM (inactive)
GI50 (CCRF-CEM): > 50.1 µM (inactive)
GI50 (HCT-116): 67.1 µM (inactive)
GI50 (HCT-15): > 100 µM
GI50 (HT-29): > 100 µM (inactive)
GI50 (K562): > 96.6 µM (inactive)
GI50 (KM12): > 100 µM (inactive)
GI50 (M14): > 100 µM (inactive)
GI50 (MCF7): > 100 µM (inactive)
GI50 (MDA-N): > 100 µM (inactive)
GI50 (MOLT-4): > 38.8 µM (inactive)
GI50 (NCI-H522): 27.9 µM (inactive)
GI50 (OVCAR-8): > 52.7 µM (inactive)
GI50 (RPMI-8226): > 100 µM (inactive)
GI50 (RXF 393): 16.9 µM (inactive)
GI50 (SF-295): 44.1 µM (inactive)
GI50 (SK-MEL-28): > 100 µM (inactive)
GI50 (SN12C): 99.8 µM (inactive)
GI50 (UACC-62): 1.67 µM (inactive)

O=c1cc(N2CCCC2)[nH]c(=O)n1-c1ccc(F)cc1
GI50 (A498): > 100 µM (inactive)
GI50 (CAKI-1): > 100 µM (inactive)
GI50 (CCRF-CEM): > 100 µM (inactive)
GI50 (HCT-116): > 100 µM (inactive)
GI50 (HCT-15): > 100 µM
GI50 (HT-29): > 100 µM (inactive)
GI50 (K562): > 100 µM (inactive)
GI50 (KM12): > 100 µM (inactive)
GI50 (M14): > 100 µM (inactive)
GI50 (MCF7): > 100 µM (inactive)
GI50 (MDA-N): > 100 µM (inactive)
GI50 (MOLT-4): > 100 µM (inactive)
GI50 (NCI-H522): > 100 µM (inactive)
GI50 (OVCAR-8): > 100 µM (inactive)
GI50 (RPMI-8226): > 100 µM (inactive)
GI50 (RXF 393): > 100 µM (inactive)
GI50 (SF-295): > 100 µM (inactive)
GI50 (SK-MEL-28): > 100 µM (inactive)
GI50 (SN12C): > 100 µM (inactive)
GI50 (UACC-62): > 100 µM (inactive)

COc1cccc(Nc2nc(NNC(=O)Cc3ccccc3)nc(NNC(=O)c3ccncc3)n2)c1
GI50 (A498): > 100 µM (inactive)
GI50 (CAKI-1): > 10 µM (inactive)
GI50 (CCRF-CEM): > 10 µM (inactive)
GI50 (HCT-116): > 100 µM (inactive)
GI50 (HCT-15): 7.93 µM
GI50 (HT-29): > 100 µM (inactive)
GI50 (K562): > 10 µM (inactive)
GI50 (KM12): 71.3 µM (inactive)
GI50 (M14): 79.4 µM (inactive)
GI50 (MCF7): > 10 µM (inactive)
GI50 (MDA-N): > 10 µM (inactive)
GI50 (MOLT-4): 78.7 µM (inactive)
GI50 (NCI-H522): > 100 µM (inactive)
GI50 (OVCAR-8): > 10 µM (inactive)
GI50 (RPMI-8226): > 10 µM (inactive)
GI50 (RXF 393): > 100 µM (inactive)
GI50 (SF-295): > 100 µM (inactive)
GI50 (SK-MEL-28): > 100 µM (inactive)
GI50 (SN12C): > 10 µM (inactive)
GI50 (UACC-62): 4.71 µM (inactive)

CC(C)(C)COC(=O)C(C)(C)NC(=O)C(CC(=O)OCc1ccccc1)NC(=O)OCc1ccccc1 (stereo not given)
GI50 (A498): 28.2 µM (inactive)
GI50 (CAKI-1): 58.2 µM (inactive)
GI50 (CCRF-CEM): 25.3 µM (inactive)
GI50 (HCT-116): 32.7 µM (inactive)
GI50 (HCT-15): 25.6 µM
GI50 (HT-29): 24.8 µM (inactive)
GI50 (K562): 30.1 µM (inactive)
GI50 (KM12): 35.2 µM (inactive)
GI50 (M14): 32.1 µM (inactive)
GI50 (MCF7): 32.4 µM (inactive)
GI50 (MDA-N): 30.9 µM (inactive)
GI50 (MOLT-4): 17.6 µM (inactive)
GI50 (NCI-H522): 24 µM (inactive)
GI50 (OVCAR-8): 40.1 µM (inactive)
GI50 (RPMI-8226): 26.5 µM (inactive)
GI50 (RXF 393): > 100 µM (inactive)
GI50 (SF-295): 34.4 µM (inactive)
GI50 (SK-MEL-28): > 100 µM (inactive)
GI50 (SN12C): 25.6 µM (inactive)
GI50 (UACC-62): 19.5 µM (inactive)

CCC(/C=C/C1OC(=O)C=CC1C)=C\C(C)C/C=C/C(C)=C/C(C)C(=O)C(C)C(O)C(C)C/C(C)=C/C(=O)O (stereo not given)
GI50 (A498): 2.08 µM (inactive)
GI50 (CAKI-1): 0.807 µM (active)
GI50 (CCRF-CEM): 0.895 µM (active)
GI50 (HCT-116): 1.17 µM (inactive)
GI50 (HCT-15): 1.28 µM
GI50 (HT-29): 3.01e-06 µM (active)
GI50 (K562): 1.02 µM (active)
GI50 (KM12): 4.54 µM (inactive)
GI50 (M14): 5.27e-06 µM (active)
GI50 (MCF7): 1.03 µM (active)
GI50 (MDA-N): 2.13e-06 µM (active)
GI50 (MOLT-4): 1.06 µM (active)
GI50 (NCI-H522): 0.955 µM (active)
GI50 (OVCAR-8): 3.14 µM (inactive)
GI50 (RPMI-8226): 1.37 µM (inactive)
GI50 (RXF 393): 1.13 µM (inactive)
GI50 (SF-295): 0.757 µM (active)
GI50 (SK-MEL-28): 2.65 µM (inactive)
GI50 (SN12C): 2.72 µM (inactive)
GI50 (UACC-62): 1.56 µM (inactive)

CCCCCC(/C=C/C1CCC(=O)C1CC#C[Si](C)(C)C)OCc1ccccc1 (stereo not given)
GI50 (A498): 36.3 µM (inactive)
GI50 (CAKI-1): 17.9 µM (inactive)
GI50 (CCRF-CEM): 10.5 µM (inactive)
GI50 (HCT-116): 15.8 µM (inactive)
GI50 (HCT-15): 15.6 µM
GI50 (HT-29): 16.3 µM (inactive)
GI50 (K562): 19.1 µM (inactive)
GI50 (KM12): 16.2 µM (inactive)
GI50 (M14): 25 µM (inactive)
GI50 (MCF7): 19.1 µM (inactive)
GI50 (MDA-N): 21.1 µM (inactive)
GI50 (MOLT-4): > 37.8 µM (inactive)
GI50 (NCI-H522): 14 µM (inactive)
GI50 (OVCAR-8): 14.8 µM (inactive)
GI50 (RPMI-8226): 14.7 µM (inactive)
GI50 (RXF 393): 13.9 µM (inactive)
GI50 (SF-295): 17.1 µM (inactive)
GI50 (SK-MEL-28): 23 µM (inactive)
GI50 (SN12C): 19.8 µM (inactive)
GI50 (UACC-62): 13.5 µM (inactive)

CCSc1nn(-c2c3ccccc3nc3ccccc23)c(=S)s1
GI50 (A498): > 100 µM (inactive)
GI50 (CAKI-1): > 100 µM (inactive)
GI50 (CCRF-CEM): > 100 µM (inactive)
GI50 (HCT-116): > 100 µM (inactive)
GI50 (HCT-15): > 100 µM
GI50 (HT-29): > 100 µM (inactive)
GI50 (K562): > 100 µM (inactive)
GI50 (KM12): > 100 µM (inactive)
GI50 (M14): > 100 µM (inactive)
GI50 (MCF7): > 100 µM (inactive)
GI50 (MDA-N): > 100 µM (inactive)
GI50 (MOLT-4): > 100 µM (inactive)
GI50 (NCI-H522): > 100 µM (inactive)
GI50 (OVCAR-8): > 100 µM (inactive)
GI50 (RPMI-8226): > 100 µM (inactive)
GI50 (RXF 393): > 100 µM (inactive)
GI50 (SF-295): > 100 µM (inactive)
GI50 (SK-MEL-28): > 100 µM (inactive)
GI50 (SN12C): > 100 µM (inactive)
GI50 (UACC-62): > 100 µM (inactive)

From ChEMBL document CHEMBL1201862, “PubChem BioAssay data set” (2004)
